Columns and labels:
purple nutsedge = assay: Test B pre/postemergence purple nutsedge; format: in vivo, Cyperus rotundus; conditions: for Plant response rating, Nutsedge: scale of 0 to 10 where 0 is no effect and 10 is complete control
How it was run: (§1)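 Test chemicals in a non-phytotoxic solvent mixture with surfactant were sprayed preemergence onto planted seeds and postemergence onto plants 2 to 18 cm tall (1- to 4-leaf stage). After twelve to sixteen days in a greenhouse, injury was visually rated against untreated controls from 0 (no effect) to 10 (complete control).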

cocklebur = assay: Test B pre/postemergence cocklebur; format: in vivo, Xanthium strumarium
How it was run: as §1

bamyardgrass = assay: Test B flood test barnyardgrass; format: in vivo, Echinochloa crus-galli
How it was run: (§2)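 Plants were grown to the 2-leaf stage before treatment with test chemical, then held in a greenhouse for twelve to sixteen days. Injury was visually rated against untreated controls on a 0–10 scale, where 0 is no effect and 10 is complete control.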

wheat = assay: Test B pre/postemergence wheat; format: in vivo, Triticum aestivum; conditions: for Plant response rating, Wheat: scale of 0 to 10 where 0 is no effect and 10 is complete control
How it was run: as §1

giant foxtail = assay: Test B pre/postemergence giant foxtail; format: in vivo, Setaria faberii
How it was run: as §1

velvetleaf = assay: Test B pre/postemergence velvetleaf; format: in vivo, Abutilon theophrasti; conditions: for Plant response rating, Velvetleaf: scale of 0 to 10 where 0 is no effect and 10 is complete control
How it was run: as §1

crabgrass = assay: Test B pre/postemergence crabgrass; format: in vivo, Digitaria sanguinalis
How it was run: as §1

pigweed = assay: Test B pre/postemergence pigweed; format: in vivo, Amaranthus retroflexus; conditions: for Plant response rating, Redroot pigweed: scale of 0 to 10 where 0 is no effect and 10 is complete control
How it was run: as §1

rape = assay: Test B pre/postemergence rape; format: in vivo, Brassica napus; conditions: for Plant response rating, Rape: scale of 0 to 10 where 0 is no effect and 10 is complete control
How it was run: as §1

wild oat = assay: Test B pre/postemergence wild oat; format: in vivo, Avena fatua; conditions: for Plant response rating, Wild oats: scale of 0 to 10 where 0 is no effect and 10 is complete control
How it was run: as §1

sugar beet = assay: Test B pre/postemergence sugar beet; format: in vivo, Beta vulgaris; conditions: for Plant response rating, Sugarbeets: scale of 0 to 10 where 0 is no effect and 10 is complete control
How it was run: as §1

soybean = assay: Test B pre/postemergence soybean; format: in vivo, Glycine max; conditions: for Plant response rating, Soybean: scale of 0 to 10 where 0 is no effect and 10 is complete control
How it was run: as §1

corn = assay: Test B pre/postemergence corn; format: in vivo, Zea mays
How it was run: as §1

smallflower flatsedge = assay: Test B flood test smallflower flatsedge; format: in vivo, Cyperus difformis
How it was run: as §2

duck salad = assay: Test B flood test duck salad; format: in vivo, Heteranthera limosa
How it was run: as §2

surinam grass = assay: Test B pre/postemergence surinam grass; format: in vivo, Brachiaria decumbens
How it was run: as §1

[1] = Postemergence, Rate 250 g/ha, scale 0 to 10
[2] = Preemergence, Rate 250 g/ha, scale 0 to 10, 0 is no effect, 10 is complete control
[3] = Preemergence, Rate 500 g/ha, scale 0 to 10, 0 is no effect, 10 is complete control
[4] = Rate 62 g/ha, Postemergence, scale 0 to 10 (0 no effect, 10 complete control)
[5] = Rate 125 g/ha, Postemergence, scale 0 to 10, 0 is no effect, 10 is complete control
[6] = Postemergence, Rate 500 g/ha, scale of 0 to 10 where 0 is no effect and 10 is complete control
[7] = Preemergence, Rate 62 g/ha, scale of 0 to 10 where 0 is no effect and 10 is complete control
[8] = Preemergence, Rate 125 g/ha, scale of 0 to 10 where 0 is no effect and 10 is complete control
[9] = Rate 62 g/ha, flood test species, Pre-emergence, visual evaluation after twelve to sixteen days
[10] = Rate 125 g/ha, under heading Pre-emergence, flood test species, visual evaluation after twelve to sixteen days
[11] = Rate 250 g/ha, Pre-emergence (flood test species), scale 0 to 10, 0 is no effect, 10 is complete control
[12] = Rate 500 g/ha, Pre-emergence, flood test species, scale 0 to 10 (0 no effect, 10 complete control)

SMILES: COC(OC)C(C)n1c(=O)on(C(=O)N(c2ccc(F)cc2F)C(C)C)c1=O (stereo not drawn) [Compound 472]
- Nutsedge plant response rating (purple nutsedge; [1]): 0
- Plant response rating, Nutsedge (purple nutsedge; Preemergence, Rate 62 g/ha): 0
- Plant response rating, Nutsedge (purple nutsedge; Preemergence, Rate 125 g/ha): 0
- Nutsedge plant response rating (purple nutsedge; [2]): 0
- Nutsedge plant response rating (purple nutsedge; [3]): 10
- Nutsedge plant response rating (purple nutsedge; [4]): 0
- Nutsedge plant response rating (purple nutsedge; [5]): 0
- Cocklebur plant response rating (cocklebur; [1]): 0
- Cocklebur plant response rating (cocklebur; [6]): 1
- Plant response rating, Cocklebur (cocklebur; [7]): 0
- Plant response rating, Cocklebur (cocklebur; [8]): 0
- Cocklebur plant response rating (cocklebur; [2]): 0
- Cocklebur plant response rating (cocklebur; [3]): 2
- Cocklebur plant response rating (cocklebur; [4]): 0
- Cocklebur plant response rating (cocklebur; [5]): 0
- Plant response rating, Barnyardgrass (0 to 10 scale, 0 is no effect, 10 is complete control) (bamyardgrass; [9]): 0
- Barnyardgrass plant response rating (0 to 10 scale, 0 is no effect, 10 is complete control) (bamyardgrass; [10]): 0
- Barnyardgrass plant response rating (bamyardgrass; [11]): 0
- Barnyardgrass plant response rating (bamyardgrass; [12]): 0
- Wheat plant response rating (wheat; [1]): 0
- Plant response rating, Wheat (wheat; Preemergence, Rate 62 g/ha): 0
- Plant response rating, Wheat (wheat; Preemergence, Rate 125 g/ha): 0
- Wheat plant response rating (wheat; [2]): 0
- Wheat plant response rating (wheat; [3]): 0
- Wheat plant response rating (wheat; [4]): 0
- Wheat plant response rating (wheat; [5]): 0
- Giant foxtail plant response rating (giant foxtail; [1]): 8
- Giant foxtail plant response rating (giant foxtail; [6]): 8
- Plant response rating, Giant foxtail (giant foxtail; [7]): 10
- Plant response rating, Giant foxtail (giant foxtail; [8]): 10
- Giant foxtail plant response rating (giant foxtail; [2]): 10
- Giant foxtail plant response rating (giant foxtail; [3]): 10
- Giant foxtail plant response rating (giant foxtail; [4]): 7
- Giant foxtail plant response rating (giant foxtail; [5]): 7
- Velvetleaf plant response rating (velvetleaf; [1]): 2
- Plant response rating, Velvetleaf (velvetleaf; Preemergence, Rate 62 g/ha): 1
- Plant response rating, Velvetleaf (velvetleaf; Preemergence, Rate 125 g/ha): 3
- Velvetleaf plant response rating (velvetleaf; [2]): 3
- Velvetleaf plant response rating (velvetleaf; [3]): 7
- Velvetleaf plant response rating (velvetleaf; [4]): 0
- Velvetleaf plant response rating (velvetleaf; [5]): 0
- Crabgrass plant response rating (crabgrass; [1]): 8
- Crabgrass plant response rating (crabgrass; [6]): 8
- Plant response rating, Crabgrass (crabgrass; [7]): 9
- Plant response rating, Crabgrass (crabgrass; [8]): 9
- Crabgrass plant response rating (crabgrass; [2]): 10
- Crabgrass plant response rating (crabgrass; [3]): 10
- Crabgrass plant response rating (crabgrass; [4]): 7
- Crabgrass plant response rating (crabgrass; [5]): 7
- Redroot pigweed plant response rating (pigweed; [1]): 3
- Plant response rating, Redroot pigweed (pigweed; Preemergence, Rate 62 g/ha): 10
- Plant response rating, Redroot pigweed (pigweed; Preemergence, Rate 125 g/ha): 10
- Redroot pigweed plant response rating (pigweed; [2]): 10
- Redroot pigweed plant response rating (pigweed; [3]): 10
- Redroot pigweed plant response rating (pigweed; [4]): 0
- Redroot pigweed plant response rating (pigweed; [5]): 2
- Rape plant response rating (rape; [1]): 0
- Plant response rating, Rape (rape; Preemergence, Rate 62 g/ha): 0
- Plant response rating, Rape (rape; Preemergence, Rate 125 g/ha): 0
- Rape plant response rating (rape; [2]): 0
- Rape plant response rating (rape; [3]): 4
- Rape plant response rating (rape; [4]): 0
- Rape plant response rating (rape; [5]): 0
- Wild oats plant response rating (wild oat; [1]): 0
- Plant response rating, Wild oats (wild oat; Preemergence, Rate 62 g/ha): 2
- Plant response rating, Wild oats (wild oat; Preemergence, Rate 125 g/ha): 5
- Wild oats plant response rating (wild oat; [2]): 8
- Wild oats plant response rating (wild oat; [3]): 10
- Wild oats plant response rating (wild oat; [4]): 0
- Wild oats plant response rating (wild oat; [5]): 0
- Sugarbeets plant response rating (sugar beet; [1]): 0
- Plant response rating, Sugarbeets (sugar beet; Preemergence, Rate 62 g/ha): 1
- Plant response rating, Sugarbeets (sugar beet; Preemergence, Rate 125 g/ha): 2
- Sugarbeets plant response rating (sugar beet; [2]): 3
- Sugarbeets plant response rating (sugar beet; [3]): 6
- Sugarbeets plant response rating (sugar beet; [4]): 0
- Sugarbeets plant response rating (sugar beet; [5]): 0
- Soybean plant response rating (soybean; [1]): 2
- Plant response rating, Soybean (soybean; Preemergence, Rate 62 g/ha): 0
- Plant response rating, Soybean (soybean; Preemergence, Rate 125 g/ha): 0
- Soybean plant response rating (soybean; [2]): 0
- Soybean plant response rating (soybean; [3]): 3
- Soybean plant response rating (soybean; [4]): 2
- Soybean plant response rating (soybean; [5]): 2
- Corn plant response rating (corn; [1]): 0
- Corn plant response rating (corn; [6]): 3
- Plant response rating, Corn (corn; [7]): 0
- Plant response rating, Corn (corn; [8]): 0
- Corn plant response rating (corn; [2]): 2
- Corn plant response rating (corn; [3]): 7
- Corn plant response rating (corn; [4]): 0
- Corn plant response rating (corn; [5]): 0
- Plant response rating, S. Flatsedge (0 to 10 scale, 0 is no effect, 10 is complete control) (smallflower flatsedge; [9]): 0
- S. Flatsedge plant response rating (0 to 10 scale, 0 is no effect, 10 is complete control) (smallflower flatsedge; [10]): 0
- S. Flatsedge plant response rating (smallflower flatsedge; [11]): 0
- S. Flatsedge plant response rating (smallflower flatsedge; [12]): 0
- Plant response rating, Ducksalad (0 to 10 scale, 0 is no effect, 10 is complete control) (duck salad; [9]): 0
- Ducksalad plant response rating (0 to 10 scale, 0 is no effect, 10 is complete control) (duck salad; [10]): 0
- Ducksalad plant response rating (duck salad; [11]): 0
- Ducksalad plant response rating (duck salad; [12]): 0
- B. signalgrass plant response rating (surinam grass; Postemergence, Rate 250 g/ha, scale 0 to 10, 0 no effect, 10 complete control): 2
- B. signalgrass plant response rating (surinam grass; [6]): 5
- Plant response rating, B. signalgrass (surinam grass; [7]): 3
- Plant response rating, B. signalgrass (surinam grass; [8]): 9
- B. signalgrass plant response rating (surinam grass; [2]): 9
- B. signalgrass plant response rating (surinam grass; [3]): 10
- B. signalgrass plant response rating (surinam grass; [4]): 0
- B. signalgrass plant response rating (surinam grass; [5]): 0
